Data taken from ChEMBL document CHEMBL5724914, “Linking interpersonal differences in gut microbiota composition and drug biotransformation activity” (2024).

Assay: (§1) The drug is tested on Z-030 corresponding to mouse gut metagenome with ENA study accession number: PRJEB37062 and ENA sample accession number: ERS12561829 for biotransformation under anaerobic condition. The drug concentrations were measured over 9 timepoints collected between 0 and 24 hours of incubation by liquid-chromatography-coupled mass spectrometry (LC–MS)
Settings: 2 µM
Also: call rule not given here.

Compound | Bacterial Biotransformation
O=P(O)(O)O.c1ccc(CN(CC2=NCCN2)c2ccccc2)cc1 [ANTAZOLINE PHOSPHATE] | Compound NOT metabolized
Cc1ccnc2c1NC(=O)c1cccnc1N2C1CC1 [NEVIRAPINE] | Compound NOT metabolized

Assay: as §1, with “Z-028” for “Z-030”, “ERS12561827” for “ERS12561829”
Settings: 2 µM

Compound | Bacterial Biotransformation
O=P(O)(O)O.c1ccc(CN(CC2=NCCN2)c2ccccc2)cc1 [ANTAZOLINE PHOSPHATE] | Compound NOT metabolized
Cc1ccnc2c1NC(=O)c1cccnc1N2C1CC1 [NEVIRAPINE] | Compound NOT metabolized

Assay: as §1, with “Z-027” for “Z-030”, “to” for “to mouse gut”, “ERS12561826” for “ERS12561829”
Settings: 2 µM

Compound | Bacterial Biotransformation
O=P(O)(O)O.c1ccc(CN(CC2=NCCN2)c2ccccc2)cc1 [ANTAZOLINE PHOSPHATE] | Compound NOT metabolized
Cc1ccnc2c1NC(=O)c1cccnc1N2C1CC1 [NEVIRAPINE] | Compound NOT metabolized

Assay: as §1, with “Z-026” for “Z-030”, “to” for “to mouse gut”, “ERS12561825” for “ERS12561829”
Settings: 2 µM

Compound | Bacterial Biotransformation
O=P(O)(O)O.c1ccc(CN(CC2=NCCN2)c2ccccc2)cc1 [ANTAZOLINE PHOSPHATE] | Compound NOT metabolized
Cc1ccnc2c1NC(=O)c1cccnc1N2C1CC1 [NEVIRAPINE] | Compound NOT metabolized

Assay: as §1, with “Z-024” for “Z-030”, “pig” for “mouse”, “ERS12561823” for “ERS12561829”
Settings: 2 µM

Compound | Bacterial Biotransformation
O=P(O)(O)O.c1ccc(CN(CC2=NCCN2)c2ccccc2)cc1 [ANTAZOLINE PHOSPHATE] | Compound metabolized
Cc1ccnc2c1NC(=O)c1cccnc1N2C1CC1 [NEVIRAPINE] | Compound NOT metabolized

Assay: as §1, with “Z-020” for “Z-030”, “rabbit” for “mouse”, “ERS12561819” for “ERS12561829”
Settings: 2 µM

Compound | Bacterial Biotransformation
O=P(O)(O)O.c1ccc(CN(CC2=NCCN2)c2ccccc2)cc1 [ANTAZOLINE PHOSPHATE] | Compound NOT metabolized
Cc1ccnc2c1NC(=O)c1cccnc1N2C1CC1 [NEVIRAPINE] | Compound NOT metabolized

Assay: as §1, with “Z-010” for “Z-030”, “to” for “to mouse gut”, “ERS12561810” for “ERS12561829”
Settings: 2 µM

Compound | Bacterial Biotransformation
O=P(O)(O)O.c1ccc(CN(CC2=NCCN2)c2ccccc2)cc1 [ANTAZOLINE PHOSPHATE] | Compound metabolized
Cc1ccnc2c1NC(=O)c1cccnc1N2C1CC1 [NEVIRAPINE] | Compound NOT metabolized

Assay: as §1, with “Z-004” for “Z-030”, “to” for “to mouse gut”, “ERS12561804” for “ERS12561829”
Settings: 2 µM

Compound | Bacterial Biotransformation
O=P(O)(O)O.c1ccc(CN(CC2=NCCN2)c2ccccc2)cc1 [ANTAZOLINE PHOSPHATE] | Compound metabolized
Cc1ccnc2c1NC(=O)c1cccnc1N2C1CC1 [NEVIRAPINE] | Compound NOT metabolized

Assay: as §1, with “Z-002” for “Z-030”, “rabbit” for “mouse”, “ERS12561802” for “ERS12561829”
Settings: 2 µM

Compound | Bacterial Biotransformation
O=P(O)(O)O.c1ccc(CN(CC2=NCCN2)c2ccccc2)cc1 [ANTAZOLINE PHOSPHATE] | Compound metabolized
Cc1ccnc2c1NC(=O)c1cccnc1N2C1CC1 [NEVIRAPINE] | Compound metabolized

Assay: as §1, with “Z-001” for “Z-030”, “ERS12561801” for “ERS12561829”
Settings: 2 µM

Compound | Bacterial Biotransformation
O=P(O)(O)O.c1ccc(CN(CC2=NCCN2)c2ccccc2)cc1 [ANTAZOLINE PHOSPHATE] | Compound NOT metabolized
Cc1ccnc2c1NC(=O)c1cccnc1N2C1CC1 [NEVIRAPINE] | Compound NOT metabolized

Assay: as §1, with “WLS-370” for “Z-030”, “human” for “mouse”, “ERS12561793” for “ERS12561829”
Settings: 2 µM

Compound | Bacterial Biotransformation
O=P(O)(O)O.c1ccc(CN(CC2=NCCN2)c2ccccc2)cc1 [ANTAZOLINE PHOSPHATE] | Compound metabolized
Cc1ccnc2c1NC(=O)c1cccnc1N2C1CC1 [NEVIRAPINE] | Compound metabolized

Assay: as §1, with “WLS-170” for “Z-030”, “human” for “mouse”, “ERS12561762” for “ERS12561829”
Settings: 2 µM

Compound | Bacterial Biotransformation
O=P(O)(O)O.c1ccc(CN(CC2=NCCN2)c2ccccc2)cc1 [ANTAZOLINE PHOSPHATE] | Compound metabolized
Cc1ccnc2c1NC(=O)c1cccnc1N2C1CC1 [NEVIRAPINE] | Compound metabolized

Assay: as §1, with “WLS-090” for “Z-030”, “human” for “mouse”, “ERS12561753” for “ERS12561829”
Settings: 2 µM

Compound | Bacterial Biotransformation
O=P(O)(O)O.c1ccc(CN(CC2=NCCN2)c2ccccc2)cc1 [ANTAZOLINE PHOSPHATE] | Compound metabolized
Cc1ccnc2c1NC(=O)c1cccnc1N2C1CC1 [NEVIRAPINE] | Compound metabolized

Settings: human gut metagenome, 24 h, 2 µM

Compound | Bacterial Biotransformation
O=P(O)(O)O.c1ccc(CN(CC2=NCCN2)c2ccccc2)cc1 [ANTAZOLINE PHOSPHATE] | Compound NOT metabolized
Cc1ccnc2c1NC(=O)c1cccnc1N2C1CC1 [NEVIRAPINE] | Compound NOT metabolized

Settings: human gut metagenome, 24 h, 2 µM
Remark: another data set of the same source

Compound | Bacterial Biotransformation
O=P(O)(O)O.c1ccc(CN(CC2=NCCN2)c2ccccc2)cc1 [ANTAZOLINE PHOSPHATE] | Compound NOT metabolized
Cc1ccnc2c1NC(=O)c1cccnc1N2C1CC1 [NEVIRAPINE] | Compound metabolized

Settings: human gut metagenome, 24 h, 2 µM
Remark: another data set of the same source

Compound | Bacterial Biotransformation
O=P(O)(O)O.c1ccc(CN(CC2=NCCN2)c2ccccc2)cc1 [ANTAZOLINE PHOSPHATE] | Compound NOT metabolized
Cc1ccnc2c1NC(=O)c1cccnc1N2C1CC1 [NEVIRAPINE] | Compound metabolized

Settings: human gut metagenome, 24 h, 2 µM
Remark: another data set of the same source

Compound | Bacterial Biotransformation
O=P(O)(O)O.c1ccc(CN(CC2=NCCN2)c2ccccc2)cc1 [ANTAZOLINE PHOSPHATE] | Compound metabolized
Cc1ccnc2c1NC(=O)c1cccnc1N2C1CC1 [NEVIRAPINE] | Compound NOT metabolized

Settings: human gut metagenome, 24 h, 2 µM
Remark: another data set of the same source

Compound | Bacterial Biotransformation
O=P(O)(O)O.c1ccc(CN(CC2=NCCN2)c2ccccc2)cc1 [ANTAZOLINE PHOSPHATE] | Compound NOT metabolized
Cc1ccnc2c1NC(=O)c1cccnc1N2C1CC1 [NEVIRAPINE] | Compound NOT metabolized

Settings: human gut metagenome, 24 h, 2 µM
Remark: another data set of the same source

Compound | Bacterial Biotransformation
O=P(O)(O)O.c1ccc(CN(CC2=NCCN2)c2ccccc2)cc1 [ANTAZOLINE PHOSPHATE] | Compound metabolized
Cc1ccnc2c1NC(=O)c1cccnc1N2C1CC1 [NEVIRAPINE] | Compound metabolized

Settings: human gut metagenome, 24 h, 2 µM
Remark: another data set of the same source

Compound | Bacterial Biotransformation
O=P(O)(O)O.c1ccc(CN(CC2=NCCN2)c2ccccc2)cc1 [ANTAZOLINE PHOSPHATE] | Compound metabolized
Cc1ccnc2c1NC(=O)c1cccnc1N2C1CC1 [NEVIRAPINE] | Compound metabolized
